Assay results as given in patent publication US20160106102A1, “KNOWN AND NEW HETEROCYCLIC COMPOUNDS AS PEST CONTROL AGENTS” (BAYER CROPSCIENCE AKTIENGESELLSCHAFT, priority 2013, published 2016).
Where two headings read alike, the source gives them in different places.

Legend:
[1] = tested on: Myzus persicae; experiment: Myzus persicae - sachet test; type: in vivo; conditions: 100% = all animals killed
Procedure: Myzus persicae—Sachet Test Solvent: 2% by vol. of N-methylpyrrolidone • 2% by vol. of diacetone alcohol To produce an appropriate active ingredient formulation, the active ingredient is mixed with the specified amounts of solvent and the concentrate is diluted to the desired concentration with water. The active ingredient formulation is added to a specific nutrient medium in the desired concentration by pipetting. This plate is sealed and combined with a further plate populated with the green peach aphid (Myzus persicae). After the desired time, the kill in % is determined. 100% means that all the animals have been killed; 0% means that no animals have been killed.

[2] = log P determination by LC-MS in the acidic range; type: physicochemical; conditions: for log P (acid): LC-MS in the acidic range
Excerpt: The LC-MS determination in the acidic range is effected at pH 2.7 using 0.1% aqueous formic acid and acetonitrile (contains 0.1% formic acid) as eluents, linear gradient from 10% acetonitrile to 95% acetonitrile. Alternatively, the determination is effected in the acidic range at pH 2.3 using 0.1% aqueous phosphoric acid and acetonitrile as eluents; linear gradient from 10% acetonitrile to 95% acetonitrile.

[3] = application rate of 30 ppm in nutrient medium
[4] = application rate of 6 ppm in nutrient medium
[5] = Myzus persicae, application rate of 30 ppm in nutrient medium, read-out: efficacy (kill in %)
[6] = pH 2.7, LC-MS in the acidic range, read-out: log P (acid)
[7] = pH 2.7, values given in the synthesis examples and NMR lists, read-out: HPLC-MS: log P

Compound | efficacy (kill in %) [1, 3] [%] | log P (acid) [2] | efficacy (kill in %) [1, 4] [%] | pest or weed control at 30 ppm [1, 5] [%] | chromatographic logP [2, 6] | chromatographic logP [2, 7] | pest or weed control at 6 ppm ([1]; Myzus persicae, application rate of 6 ppm in nutrient medium, read-out: efficacy (kill in %)) [%]
O=C(Nc1ccn(Cc2c(F)cccc2F)n1)c1cccnc1 [Compound I-1-68] | 100 | 1.55 | – | – | – | – | –
O=C(Nc1ccn(Cc2cccc(F)c2)n1)c1cccnc1 [Compound I-1-70] | 100 | 1.59 | – | – | – | – | –
O=C(Nc1ccn(Cc2cccc(C(F)(F)F)c2)n1)c1cccnc1 [Compound I-1-71] | 100 | 2.07 | – | – | – | – | –
Cc1cccc(Cn2ccc(NC(=O)c3cccnc3)n2)c1 [Compound I-1-72] | 100 | 1.83 | 100 | – | – | – | –
O=C(Nc1ccn(Cc2cccc(OC(F)(F)F)c2)n1)c1cccnc1 [Compound I-1-73] | 100 | 2.20 | – | – | – | – | –
COc1cccc(Cn2ccc(NC(=O)c3cccnc3)n2)c1 [Compound I-1-74] | 100 | 1.57 | 100 | – | – | – | –
CC(C)(C)c1ccc(Cn2ccc(NC(=O)c3cccnc3)n2)cc1 [Compound I-1-75] | 100 | 2.68 | – | – | – | – | –
O=C(Nc1ccn(Cc2ccc(F)cc2F)n1)c1cccnc1 [Compound I-1-76] | 100 | 1.68 | 100 | – | – | – | –
COC(=O)c1cccc(Cn2ccc(NC(=O)c3cccnc3)n2)c1 [Compound I-1-77] | 100 | 1.57 | 100 | – | – | – | –
COc1ccc(Cn2ccc(NC(=O)c3cccnc3)n2)cc1 [Compound I-1-78] | 100 | 1.55 | – | – | – | – | –
Cc1cc(NC(=O)c2ccnnc2)nn1Cc1ccccc1 [Compound I-1-79, N-(1-Benzyl-5-methyl-1H-pyrazol-3-yl)pyridazine-4-carboxamide] | – | – | – | 100 | 1.67 | 1.67 | –
Cc1ccc(C(=O)Nc2cc(C)n(Cc3ccccc3)n2)cn1 [Compound I-1-80] | 100 | 1.71 | 80 | – | – | – | –
Cc1ccc(C)c(Cn2ccc(NC(=O)c3cccnc3)n2)c1 [Compound I-1-81] | 100 | 2.11 | – | – | – | – | –
Cc1cc(NC(=O)c2cncc(Br)c2)nn1Cc1ccc(F)cc1 [Compound I-1-83] | 100 | 2.67 | – | – | – | – | –
O=C(Nc1ccn(Cc2ccccc2)n1)c1cccnc1 [Compound I-1-84] | 100 | 1.52 | 100 | – | – | – | –
CC(C)(C)c1ccc(Cn2ccc(NC(=O)c3ccc(Cl)nc3)n2)cc1 [Compound I-1-86] | 100 | 3.54 | – | – | – | – | –
O=C(Nc1ccn(Cc2cccc(C(F)(F)F)c2)n1)c1ccc(Cl)nc1 [Compound I-1-87] | 100 | 2.82 | – | – | – | – | –
O=C(Nc1ccn(Cc2ccccc2F)n1)c1cccnc1 [Compound I-1-88] | 100 | 1.58 | 100 | – | – | – | –
N#Cc1ccccc1Cn1ccc(NC(=O)c2cccnc2)n1 [Compound I-1-89] | 100 | 1.37 | 100 | – | – | – | –
O=C(Nc1ccn(Cc2cc(F)ccc2F)n1)c1cccnc1 [Compound I-1-90] | 100 | 1.65 | 100 | – | – | – | –
O=C(Nc1ccn(Cc2ccccc2C(F)(F)F)n1)c1cccnc1 [Compound I-1-91] | 100 | 2.09 | – | – | – | – | –
CCOC(=O)c1ccc(Cn2ccc(NC(=O)c3cccnc3)n2)cc1 [Compound I-1-92] | 100 | 1.85 | – | – | – | – | –

Compound | efficacy (kill in %) [1, 3] [%] | log P (acid) [2] | efficacy (kill in %) [1, 4] [%] | pest or weed control at 30 ppm [1, 5] [%] | chromatographic logP [2, 6] | chromatographic logP [2, 7] | pest or weed control at 6 ppm ([1]; Myzus persicae, application rate of 6 ppm in nutrient medium, read-out: efficacy (kill in %)) [%]
Cc1cc(NC(=O)c2ccc(Cl)nc2)nn1Cc1ccccc1F [Compound I-1-93] | 100 | 2.59 | – | – | – | – | –
Cc1cc(NC(=O)c2ccc(Cl)nc2)nn1Cc1ccc(F)cc1 [Compound I-1-95] | 100 | 2.57 | – | – | – | – | –
Cc1cc(NC(=O)c2cncc(Br)c2)nn1Cc1ccccc1 [Compound I-1-99] | 100 | 2.58 | – | – | – | – | –
Cc1cc(NC(=O)c2cnc(Cl)c(Cl)c2)nn1Cc1ccccc1 [Compound I-1-100] | 100 | 3.18 | – | – | – | – | –
COc1ccc(C(=O)Nc2cc(C)n(Cc3ccccc3)n2)cn1 [Compound I-1-104] | 80 | 2.43 | 80 | – | – | – | –
Cc1ccc(C(=O)Nc2cc(C)n(Cc3cccc(F)c3)n2)cn1 [Compound I-1-108] | 100 | 1.79 | – | – | – | – | –
Cn1nc(NC(=O)c2cccnc2)cc1OC(F)F [Compound I-1-111] | 100 | 0.89 | 100 | – | – | – | –
O=C(Nc1ccn(Cc2ncc(C(F)(F)F)cc2Cl)n1)c1cccnc1 [Compound I-1-116] | 100 | 1.86 | 100 | – | – | – | –
CC(=O)n1nc(NC(=O)c2cccnc2)cc1C [Compound I-1-120] | 100 | 1.18 | 100 | – | – | – | –
Cc1cc(NC(=O)c2cccnc2)nn1C(=O)c1ccccc1Cl [Compound I-1-122, N-[1-(2-Chlorobenzoyl)-5-methyl-1H-pyrazol-3-yl]nicotinamide] | – | – | – | 100 | 2.27 | 2.27 | 100
Cc1c(Br)c(NC(=O)c2cccnc2)nn1Cc1ncccn1 [Compound I-1-125] | 100 | 0.98 | – | – | – | – | –
Cc1cc(C)nc(-n2nc(NC(=O)c3cncc(F)c3)cc2C)n1 [Compound I-1-132] | 100 | 2.04 | – | – | – | – | –
Cc1cc(NC(=O)c2cncc(F)c2)nn1CC(F)(F)F [Compound I-1-135] | 100 | 1.79 | – | – | – | – | –
Cc1cn(Cc2ncccn2)nc1NC(=O)c1cccnc1 [Compound I-1-136, N-[4-Methyl-1-(pyrimidin-2-ylmethyl)-1H-pyrazol-3-yl]nicotinamide] | – | – | – | 100 | 0.44 | 0.44 | –
COC(=O)c1cc(NC(=O)c2cccnc2)nn1C [Compound I-1-138] | 100 | 1.05 | – | – | – | – | –
Cc1cc(C)nc(-n2nc(NC(=O)c3cccnc3)cc2C)n1 [Compound I-1-139] | 100 | 1.6 | 100 | – | – | – | –
Cc1cc(NC(=O)c2cccnc2)nn1CN1CCS/C1=N/C#N [Compound I-1-142] | 100 | 1.08 | 100 | – | – | – | –
Cc1cc(NC(=O)c2cccnc2)nn1Cn1c(=O)n(C)c(=O)n1C [Compound I-1-145] | 100 | 0.82 | – | – | – | – | –
Cc1cc(NC(=O)c2cccnc2)nn1Cn1nc(C)n(C2CC2)c1=O [Compound I-1-146] | 100 | 1.05 | 100 | – | – | – | –
Cc1cc(NC(=O)c2cccnc2)nn1CC1COc2ccccc2O1 (stereo not shown) [Compound I-1-157] | 100 | 1.99 | – | – | – | – | –
Cc1cc(NC(=O)c2cccnc2)nn1Cc1ccc2c(c1)CCCC2 [Compound I-1-158] | 100 | 2.73 | – | – | – | – | –
Cc1cc(NC(=O)c2cccnc2)nn1Cc1cn2cc(F)ccc2n1 [Compound I-1-159] | 100 | 0.66 | 100 | – | – | – | –
